Results on two molecules are retold here after patent US20110172217A1, “RING-FUSED MORPHOLINE DERIVATIVE HAVING PI3K-INHIBITING ACTIVITY” (Shionogi & Co., Ltd., priority 2008, published 2011).

The term inhibition denotes the share of the control response that was lost under treatment. What is called Ki is a dissociation constant, usually derived from enzyme kinetics or from competition with a known ligand. Higher therefore signals a looser hold on the target. Broadly, the IC50 is the concentration at which inhibition is half-maximal. A high value points to a need for much substance.

For data set [1], the target named is T1, PI-3 kinase γ (Homo sapiens, UniProt P48736). Nature of the data set: PI3Kγ inhibitory activity, PI3-kinase HTRF assay (inhibition ratio). In kind it is biochemical. As to conditions: 0.5 h, compound at 50 μmol/L. The method in brief:
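Human PI3Kγ was preincubated 10 min with compound and PIP2 substrate, then reacted 30 min at room temperature with ATP (40 μmol/L in the added solution); EDTA/biotin-PIP3 quenched. HTRF 665/620 nm ratio read after 18 h, normalized to no-compound (100%) and no-enzyme (0%) controls, gave % inhibition at 50 or 10 μmol/L compound.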
A general note: TR-FRET usually uses a lanthanide donor and a delayed reading to cut background.

In data set [2] the target is T1, PI-3 kinase γ. Nature of the data set: PI3Kγ inhibitory activity (Ki value). The class given is biochemical. The following applies: test ATP concentration 10 μmol/L. The protocol:
The PI3Kγ inhibitory activity (Ki value) of a compound was evaluated according to the following procedure:
5 μL of a compound solution containing 10% DMSO and 200 μmol/L of a compound was changed to 5 μL of a compound solution containing 10% DMSO and either 200, 64, 20, 6.4, 2, 0.64, or 0.20 μmol/L of the compound (optionally, this is diluted to a lower concentration). Using a method similar to the method for measuring PI3Kγ inhibitory activity, inhibition ratios were measured in the presence of the compound at 50, 16, 5, 1.6, 0.5, 0.16, and 0.05 μmol/L (optionally, a lower concentration). Then an IC50 value was calculated by a logistic approximation method or the linear regression method using two concentrations that across 50% inhibition. Separately, the ATP concentration in the reaction solution (40 μmol/L ATP, 10 mmol/L MgCl2, 5 mmol/L DTT) at the time of the start of a reaction in the absence of the compound was changed to 80, 40, 20, 10, 5, 2.5, 1.25, or 0.625 μmol/L. Then, HTRF ratios were measured by a similar method. The value obtained by subtracting the HTRF ratio at each ATP concentration from the HTRF ratio in the absence of PI-3 kinase γ was defined as the value obtained by multiplying reaction rate (v) at each ATP concentration with a constant. The Michaelis-Menten constant Km was then calculated by the Lineweaver-Burk plot method. The Ki value of a compound was calculated by the following formula.
Ki=IC50 value/(1+10 μmol/L (test ATP concentration)/Km(μmol/L))

Data set [3] in a line: Metabolic stability test, pooled human liver microsome. The class given is in vitro ADME. As to conditions: 2 μmol/L compound; human liver microsome 0.5 mg protein/mL, NADPH, 37° C. The protocol: After a subject compound was reacted for a certain time using a commercially available pooled human liver microsome, a reacted sample and an unreacted sample are compared to calculate a survival ratio, and then the degree of metabolism in the liver was evaluated.
0.2 mL of a buffer solution (50 mmol/L of Tris-HCl in pH 7.4, 150 mmol/L of potassium chloride, and 10 mmol/L of magnesium chloride) containing a human liver microsome of 0.5 mg protein/mL was reacted in the presence of 1 mmol/L NADPH at 37° C. for 0 or 30 minutes (oxidative reaction). After reacting, 50 μL of the reaction solution was added to 100 μL of a solution of methanol/acetonitrile (1/1 (v/v)), mixed, and then centrifuged at 3000 rpm for 15 minutes. The test compound in the supernatant was quantitated with LC/MS/MS. The amount of the compound at a reaction time of 0 minute was defined as 100% and, based on that, the percentage of the test compound remained after reacting for 30 minutes was calculated.

A further data set deals with T2, CYP2C19 (Homo sapiens, UniProt P33261).
T2 construct: enzyme: pooled human liver microsome 0.2 mg protein/mL; from tissue; host or cells: pooled human liver microsomes
Kind of data set: CYP inhibition test, 4′-hydroxylation of mephenyloin. In kind it is in vitro ADME. The following applies: pooled human liver microsome; one of 5 kinds. An excerpt: O-de-ethylation of 7-ethoxyresorufin (CYP1A2), methyl-hydroxylation of tolbutamide (CYP2C9), 4′-hydroxylation of mephenyloin (CYP2C19), O-demethylation of dextromethorphan (CYP2D6), and hydroxylation of terfenadine (CYP3A4), which are typical substrate for metabolic reactions of human main CYP5 molecular species (CYP1A2, 2C9, 2C19, 2D6, and 3A4), were adopted as indexes.
The reaction conditions are as follows: substrate: 0.5 μmol/L of ethoxyresorufin (CYP1A2), 100 μmol/L of tolbutamide (CYP2C9), 50 μmol/L of S-mephenyloin (CYP2C19), […] of dextromethorphan (CYP2D6), and 1 μmol/L of terfenadine (CYP3A4); reaction time; 15 minutes; reaction temperature: 37° C.; enzyme: pooled human liver microsome 0.2 mg protein/mL; test drug concentration: 1, 5, 10, and 20 μmol/L (4 points).
In a 96-well plate, as a reaction solution, five kinds of substrates, a human liver microsome, and a test drug were added to 50 mmol/L Hepes buffer solution in the aforementioned ratio. A coenzyme NADPH was added to start a metabolic reaction, which is an index. After reacting at 37° C. for 15 minutes, a solution of methanol/acetonitrile (1/1 (v/v)) was added to quench the reaction. After centrifugation at 3000 rpm for 15 minutes, resorufin (CYP1A2 metabolite) in the supernatant was quantitated with a fluorescence multilabel counter, and hydroxylated tolbutamide (CYP2C9 metabolite), 4′-hydroxylated mephenyloin (CYP2C19 metabolite), […], terfenadine in alcohol form (CYP3A4 metabolite) were quantitated with LC/MS/MS.
The case wherein only DMSO (a solvent which dissolved a drug) was added to a reaction system was defined as a control (100%). When a test drug solution was added, the remaining activity (%) at each concentration was calculated, and then IC50 was calculated with a concentration and an inhibition ratio by an inverse estimation using a logistic model.

T1 sequence (P48736 whole entry): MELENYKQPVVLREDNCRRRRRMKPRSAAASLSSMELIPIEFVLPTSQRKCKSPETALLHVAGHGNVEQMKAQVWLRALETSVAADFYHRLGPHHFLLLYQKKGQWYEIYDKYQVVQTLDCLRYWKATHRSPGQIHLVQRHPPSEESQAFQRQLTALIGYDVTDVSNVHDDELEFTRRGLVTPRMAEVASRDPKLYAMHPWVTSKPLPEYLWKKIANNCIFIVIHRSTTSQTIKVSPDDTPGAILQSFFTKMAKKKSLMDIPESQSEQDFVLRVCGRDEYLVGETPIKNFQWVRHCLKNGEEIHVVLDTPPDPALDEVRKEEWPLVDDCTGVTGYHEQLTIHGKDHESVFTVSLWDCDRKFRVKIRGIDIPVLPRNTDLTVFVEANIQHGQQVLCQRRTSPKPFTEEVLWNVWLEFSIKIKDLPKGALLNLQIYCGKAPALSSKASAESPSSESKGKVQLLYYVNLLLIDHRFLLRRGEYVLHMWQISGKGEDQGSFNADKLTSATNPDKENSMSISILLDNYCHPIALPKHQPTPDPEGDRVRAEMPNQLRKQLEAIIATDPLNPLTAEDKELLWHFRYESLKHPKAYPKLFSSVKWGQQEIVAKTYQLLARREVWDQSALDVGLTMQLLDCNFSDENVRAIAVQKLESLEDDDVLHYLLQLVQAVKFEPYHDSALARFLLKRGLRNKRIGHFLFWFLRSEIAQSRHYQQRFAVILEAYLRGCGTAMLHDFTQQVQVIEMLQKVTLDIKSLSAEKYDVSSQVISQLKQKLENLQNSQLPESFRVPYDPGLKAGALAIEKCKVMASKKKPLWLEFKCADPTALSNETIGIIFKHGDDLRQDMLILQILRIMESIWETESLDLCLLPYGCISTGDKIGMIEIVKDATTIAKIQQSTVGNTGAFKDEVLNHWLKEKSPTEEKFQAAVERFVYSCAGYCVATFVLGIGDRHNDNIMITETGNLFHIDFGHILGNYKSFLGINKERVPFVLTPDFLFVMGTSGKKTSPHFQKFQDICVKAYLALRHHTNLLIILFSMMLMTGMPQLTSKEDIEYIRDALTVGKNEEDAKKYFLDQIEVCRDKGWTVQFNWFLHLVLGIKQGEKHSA
T2 sequence (P33261 whole entry): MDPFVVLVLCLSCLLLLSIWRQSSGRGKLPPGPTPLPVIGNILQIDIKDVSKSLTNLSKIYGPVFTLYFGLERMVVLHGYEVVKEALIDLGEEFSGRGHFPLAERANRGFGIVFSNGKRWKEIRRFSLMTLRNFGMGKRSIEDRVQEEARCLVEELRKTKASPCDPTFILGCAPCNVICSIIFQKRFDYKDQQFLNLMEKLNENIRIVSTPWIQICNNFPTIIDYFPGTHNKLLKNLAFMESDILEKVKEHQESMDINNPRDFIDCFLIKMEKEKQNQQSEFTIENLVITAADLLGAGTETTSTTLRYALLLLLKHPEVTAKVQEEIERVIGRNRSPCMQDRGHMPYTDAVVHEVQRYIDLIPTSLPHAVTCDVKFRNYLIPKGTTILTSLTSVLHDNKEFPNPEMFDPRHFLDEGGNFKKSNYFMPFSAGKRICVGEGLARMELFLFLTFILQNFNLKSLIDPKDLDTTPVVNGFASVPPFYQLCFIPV

In the case of `O=C(O)c1ccccc1Nc1ccc2c(n1)N(C(=O)Nc1ccccc1)CCO2` [Compound I-145], on PI-3 kinase γ [1], the inhibition at 50 µM was determined as 81%. This molecule also returned a Ki on PI-3 kinase γ [2] of 44 nM. The “percentage of test compound remained after reacting for 30 minutes” value in data set [3] was found to be 88.4%.

Regarding `O=C(O)COc1cccc(Nc2ccc3c(n2)N(C(=O)Nc2ccccc2)CCO3)c1` [Compound I-240], the inhibition at 50 µM on PI-3 kinase γ [1] is no less than 95%. On PI-3 kinase γ [2], this molecule registered a Ki of 48 nM. The “percentage of test compound remained after reacting for 30 minutes” value in data set [3] is recorded as 89.9%. The molecule also had an IC50 against CYP2C19 greater than 20000 nM.
